Results on three molecules are retold here after US7381521B2, “Anti-pathogenic composition useful in blood preservation” (Altachem Pharma Ltd., priority 2001, dated 2008).

In the data set the test system is erythrocytes in heparinized bovine blood. The data set can be described thus: In-vitro hemolysis of erythrocytes in heparinized whole blood, absorbance at 413 nm. The following applies: 1 hour at 37° C.
Protocol: The effect of the compounds on the in-vitro hemolysis of erythrocytes in heparinized whole blood is monitored by a spectrophotometric method.
Various formulations and concentrations of the test compound are added to heparinized bovine blood and mixed gently in a 1.5 ml microcentrifuge tube. The sample is allowed to incubate for 1 hour at 37° C. At the end of incubation, the samples are removed from the incubator and centrifuged at 2000 rpm for 5 minutes. A 200 μl aliquot of the supernatant is removed from each sample into a 96 well microtiter plate and read at 413 nm. The absorbance of the test sample is compared to the control sample containing phosphate buffered saline, pH 7.2.
On to `C[N+](C)(C)CCCCCCCCCC[N+](C)(C)C.[I-].[I-]` [Decamethonium Iodide], for which the “Concentration at which hemolysis is not observed” value came to 0.0125%.
Regarding Tergitol NP-9, the “Concentration at which hemolysis is not observed” value came to 0.001%.
`C[N+](C)(C)CCCCCC[N+](C)(C)C` [Hexamethonium Bromide]: the “Concentration at which hemolysis is not observed” value was found to be 0.0125%.
